The source of these data is PMC6155626 (Molecules : A Journal of Synthetic Chemistry and Natural …, 2016).

Converted amounts (≈) assume the structure as drawn. “And” between values parts separate entries of the source, which are not always exact repeats. Equal values may be shown once. Read-outs that look alike come from different tables or passages of the source.

Data set [1] concerns Xanthomonas axonopodis pv. citri. In words: microbe, parasite or virus in culture. Format: cell-based.
In data set [2] the test system is X. oryzae in rice plant. Type of data set: in vivo, Xanthomonas oryzae pv. oryzae. Particulars: 200 μg/mL, 14 days after spraying.
In data set [3] the test system is Xanthomonas oryzae pv. oryzae. In words: microbe, parasite or virus in culture. Format: cell-based. As to conditions: Xanthomonas oryzae.
Data set [4] relates to rice seeds (Fengyou Xiangzhan). Particulars: Fengyou Xiangzhan, rice, in vivo.
A further data set has as its system tobacco leaves. Particulars: in vivo.
The test system of another data set is Ralstonia solanacearum. Put plainly: microbe, parasite or virus in culture. Format: cell-based. As to conditions: Ralstonia solanacearum.
Data set [5] concerns X. oryzae in rice plant. Particulars: 200 μg/mL; cited from earlier work.
[6] abbreviates: Xanthomonas axonopodis, read-out: Inhibition rate.

Take `S=c1[nH]nc(NCNc2n[nH]c(=S)s2)s1` [Bismerthiazol, 5,5′-(methylenediimino)bis-1,3,4-Thiadiazole-2(3H)-thione, reference compound]: the EC50 is 119.5 ± 5.1 µg/mL in data set [1]; 119 µg/mL in data set [1] (Xanthomonas axonopodis); approximately 333 µM in data set [1] (Xanthomonas axonopodis, read-out: Bactericidal EC50 in molar terms); 92.6 ± 2.15 µg/mL (≈ 333 µM) in data set [3]; 59.7 ± 2.56 µg/mL (≈ 214 µM) in the data set with Ralstonia solanacearum (R. solanacearum). Also, the inhibition at 100 µg/mL worked out at 45% in data set [1] (setting [6]); 54% in data set [3] (read-out: Inhibition rate, X. oryzae, 100 μg/mL, average of three replicates); 99% in the data set with Ralstonia solanacearum (read-out: Inhibition rate). The inhibition at 200 µg/mL in data set [1] (setting [6]) stood at 67%; in data set [3] (read-out: Inhibition rate, X. oryzae, 200 μg/mL, average of three replicates) it was 72%; with Ralstonia solanacearum (read-out: Inhibition rate), 100%. Besides, the “Disease Index” value with X. oryzae in rice plant [2] was 60.0. Besides, in the data set with X. oryzae in rice plant [2], the Morbidity was found to be 100.0%. Moreover, the “Protective Efficiency” value with X. oryzae in rice plant [2] is 25.6% and 25.6 ± 4.4%. Besides, the “Concentration showing phytotoxicity on rice germination” value in data set [4] came to 300 µM. Also, the “Necrosis (lesion diameter) on tobacco leaves” value with tobacco leaves (Nicotiana benthamiana (tobacco)) is listed as 0.2–0.3 cm. Moreover, the “Phytotoxic effect on tobacco plant (in words)” value with tobacco leaves was “no or negligible phytotoxic effect”. In the data set with X. oryzae in rice plant [5], the “Control efficiency against rice bacterial leaf blight” value was 25.49%.

Usually EC50 stands for the concentration giving half of the maximal effect.
